# Data taken from US20240415919A1, “COMPOSITIONS AND METHODS FOR TREATMENT OF AUTOIMMUNE DISORDERS AND CANCER” (Dana-Farber Cancer Institute, Inc., priority 2021, published 2024).
# “Also recorded” adds a separate entry of the source.
# Tests used:
# [1] = test system: MCMV; test: Murine MCMV infection model with FL9-68 vaccination; type: in vivo, mouse
# Protocol: FIG. 10A-C provides a graphical representation showing FL9-68-dependent mobilization of CD8 Treg dampens autoantibody responses during MCMV infection. WT B6 mice were infected with MCMV (2×10^5 pfu) and vaccinated with (100 ug/dose) FL9-68 in IFA or IFA alone at day 0, 8 and 12. Mice were bled at day 3, 10 and 18 and levels of anti-dsDNA Ab (panel A), viral titer (panel B) and frequency of activated CD8 Treg (panel C, Ly49+NKG2D+CD8) are shown.
# [2] = test system: FL9 T cells; test: Activation (CD69) of FL9 TCR+ hybridoma / FL9 T cells by peptide-loaded EL4 (Qa-1+) cells; type: cell-based, mouse; conditions: 0, 1, 3 and 10 μg/ml, compared with cognate FL9 self-peptide
# Protocol: FIG. 4 provides a graphical representation showing a Qa-1-peptide yeast library, which identified peptides with superagonistic activity. FL9 T cells were stimulated with EL4 (Qa-1+) cells in the presence of surrogate peptides selected from peptide-Qa-1 yeast library for 3 days. Activation status of FL9 T cells was measured by CD69 expression.
# FIG. 58A-C and FIG. 58D-E provides representation showing identification of superagonists for FL9 T cells. FIG. 58(A) provides a schematic showing a library composed of 96 FL9 peptide variants (crude peptides) was generated by aa mutagenesis at the Qa-1 anchoring positions (p2, p3, p6, p^7 and p9). FL9 TCR^+ hybridomas were incubated with EL4 cells (Qa-1^+) loaded with each FL9 peptide variant for 12 hrs and CD69 expression and TCR downregulation were measured as an indication of TCR stimulation. […] Expression of Vα3.2 and Vβ5 on EL4 cells (trogocytosis) was measured (right). […] Dose-dependent activation of FL9 T cells was measured by culturing FL9.2 T cells with EL4 (Qa-1^+) at various concentrations of indicated peptides (0, 1, 3 and 10 μg/ml). […] Six days later, proliferation of FL9.2 T cells (CD45.2^+Vα3.2^+VD5^+) was measured by CFSE dilution (left). CD45.1^+ B6 mice were immunized with Ova323-339 peptide in CFA on day 6 and the frequency of I-A^b/Ova323-339 Tet^+ CD4 cells in activated (CD44^+) CD4 cells was analyzed on day 14. […]
# [3] = test system: Balb/C heart allografts; test: Balb/C heart transplantation into skin-sensitized B6 hosts after peptide vaccination; conditions: for heart graft survival: compared to adjuvant alone; for graft pathology (C4d deposition, immune cell infiltration): heart allografts; for donor-specific antibody (DSA): heart graft / skin-sensitized recipients
# Protocol: After selecting FL9-SA, we performed BALB/c to B6 skin transplantation with or without Hsp60p2l6 and FL9-SA, followed by heart transplantation.
# B6 mice were immunized i.p with 50 μg FL9-68/IFA or with IFA alone at day 0 and 7 followed by a BALB/C→B6 skin transplant at day 10. FL9-68/IFA or IFA immunization was repeated on days 10, 13 and 16. At day 27, fully vascularized Balb/C hearts were transplanted into the abdominal cavity of B6 mice using microsurgical techniques, as previously described (Cai et al., 2016). Heart graft survival was determined by monitoring palpable heart beating. At day X after skin sensitization, levels of FL9 T cells, Tfh, GC B and plasma cells in dLNs were analyzed by flowcytometry. Serum was collected from the heart graft recipient B6 mice that were either immunized with FL9-68/IFA or IFA alone at day 16. […] Histological analysis of heart grafts was performed by InvivoEx company using anti-C4d Ab (Hycult Biotech) and Vector Blue Alkaline Phosphatase Substrate Kit (Vector Laboratories).
# B6 mice were immunized i.p with 50 μg FL9-68-Adjuvant (IFA or AddaVax™) or Adjuvant alone at day 0 and 7 followed by a BALB/C→B6 skin transplant at day 10. FL9-68-Adj or Adj immunization was repeated on days 10, 13 and 16. At day 27, fully vascularized Balb/C hearts were transplanted into the abdominal cavity of B6 mice using microsurgical techniques, as previously described^36. Heart graft survival was determined by monitoring palpable heart beating. At day 16 after skin sensitization, levels of FL9 T cells, Tfh, GC B and plasma cells in dLNs were analyzed by flowcytometry. Serum was collected from the heart graft recipient B6 mice that were either immunized with FL9-68/IFA or IFA alone at day 16. […] Histological analysis of heart grafts was performed by InvivoEx company using anti-C4d Ab (Hycult Biotech) and Vector Blue Alkaline Phosphatase Substrate Kit (Vector Laboratories).
sequence,measurement,setting,value
FYAEATLML [FL9-68],NKG2D+Ly49+ CD8 T cells (activated CD8 Treg),"[1]; mouse, in vivo",increase of NKG2D+Ly49^+ CD8 T cells
same,production of anti-dsDNA Ab,"[1]; vaccination at days 0, 8 and 12 after viral infection",significantly reduced production of anti-dsDNA Ab
same,stimulatory activity for FL9 T cells / FL9.2 and FL9.8 TCRs (CD69 expression),[2],superior ability to activate FL9 T cells; also recorded: superior ability to stimulate FL9 T cells; also recorded: markedly enhanced dose-dependent stimulatory activity; also recorded: significantly enhanced stimulating activity in vitro and in vivo; also recorded: significantly enhanced stimulatory activity in vitro and in vivo
same,increase in FL9-specific CD8 cells within the Ly49+ CD8 T cell pool,[3]; B6 mice bearing Balb/C skin allograft,4-5 fold
same,heart graft survival,[3],significantly prolonged graft survival times; also recorded: promotes graft survival
same,heart graft survival,[3]; listed as SA peptide,significantly prolonged graft survival
same,"graft pathology (C4d deposition, immune cell infiltration)",[3],markedly diminished graft pathology; also recorded: inhibits graft tissue injury
same,"graft pathology (C4d deposition, immune cell infiltration)",[3]; listed as FL9 SA peptide,maintenance of tissue integrity
same,donor-specific antibody (DSA),[3],decrease of donor specific Ab (DSA) generation; also recorded: reduced donor-specific antibody (DSA) responses; also recorded: inhibits production of DSA
same,donor-specific antibody (DSA),[3]; listed as FL9 SA peptide,reduced generation of donor specific antibodies
same,"GC response: Tfh, GC B and plasma cells","[3]; heart graft recipients, vs IFA alone","significant reduction of these cells; also recorded: decreased Tfh, GC B and plasma cell formation; also recorded: significantly reduced GC responses; also recorded: inhibition of GC Ab response"
same,alloreactive activated CD4 cells,[3]; recipient CD4 cells co-incubated with irradiated donor splenocytes,decrease in alloreactive activated CD4 cells
same,efficacy relative to Hsp60p216,"[3]; reduction in Tfh and mature B cells during sensitization, listed as FL9-SA",substantially more efficacious than Hsp60p2l6
